Source: patent publication US20250171776A1, “NON-CANONICAL CELL-PENETRATING PEPTIDES FOR ANTISENSE OLIGOMER DELIVERY” (priority 2023, published 2025)
Where two headings read alike, the source gives them in different places. Where no end group is shown, it is not given here. [ ]: non-standard residue; d: D form. 2Nal = N[C@@H](Cc1ccc2ccccc2c1)C(=O)O; Cit = NC(=O)NCCC[C@H](N)C(=O)O; Api = NC1(C(=O)O)CCNCC1; Dab = NCC[C@H](N)C(=O)O; Iph = iodophenylalanine

Assays:
[1] = test system: HeLa 654 cells; test: HeLa 654 eGFP assay (flow cytometry, mean eGFP fluorescence, 22 h); format: cell-based; settings: for PMO response (mean eGFP fluorescence relative to vehicle): 2.5 μM, segment-CXP1 conjugates; for PMO delivery: eGFP fluorescence relative to PMO alone: 20 μM, HeLa 654 cells, flow cytometry; for PMO delivery at varying concentrations (mean eGFP fluorescence relative to vehicle): 1, 2.5, 5, 10, 25 or 50 μM
Description: Purified constructs were then tested using an activity-based readout in which nuclear delivery results in fluorescence. Briefly, HeLa cells stably transfected with an Enhanced Green Fluorescent Protein (eGFP) gene interrupted by a mutated intron of β-globin (IVS2-654) produce a non-fluorescent eGFP protein. As used herein, Hela-654 cells refers to the Hela cells transfected with an Enhanced Green Fluorescent Protein (eGFP) gene interrupted by a mutated intron of β-globin (IVS2-654) and Hela-654 eGFP Assay is used to refer to an Assay that uses the Hela-654 cells. Successful delivery of PMO IVS2-654 to the nucleus results in corrective splicing and eGFP synthesis.
The amount of PMO delivered to the nucleus is therefore correlated with eGFP fluorescence, quantified by flow cytometry. Activity was reported as mean fluorescence intensity (MFI) relative to PMO alone. This activity assay provides indirect information on how much active PMO is delivered to the nucleus. Relative efficiency of a PMO-CPP conjugate was characterized by comparing activity to internal concentration.
[…] 18 h prior to treatment, the cells were plated at a density of 5,000 cells per well in a 96-well plate in DMEM supplemented with 10% FBS and 1% penicillin-streptomycin.
For individual peptide testing, PPMOs were dissolved in phosphate buffered saline (PBS) without Ca^2+ or Mg^2+ at a concentration of 1 mM (determined by UV absorbance of the PMO) before being diluted in Dulbecco's modified eagle medium (DMEM). Cells were incubated at the designated concentrations in triplicate for 22 h at 37° C. and 5% CO2. Next, the treatment media was removed, and the cells were washed once before being incubated with 0.25% Trypsin-EDTA for 15 min at 37° C. and 5% CO2. Lifted cells were transferred to a V-bottom 96-well plate and washed once with PBS, before being resuspended in PBS containing 2% FBS and 2 μg/mL propidium iodide (PI). Flow cytometry analysis was carried out on a BD LSRII flow cytometer. Gates were applied to the data to ensure that cells that were positive for propidium iodide or had forward/side scatter readings that were sufficiently different from the main cell population were excluded. Each sample was capped at 5,000 gated events.
Analysis was conducted using Graphpad Prism 7 and FlowJo. For each sample, the mean fluorescence intensity (MFI) and the number of gated cells were measured. To report activity, triplicate MFI values were averaged and normalized to the PMO alone condition.

[2] = test system: HELA-654 cells; test: Hela-654 eGFP assay (incucyte imaging, GFP positive cells, 72 h); format: cell-based; settings: for EC50: 72 h; for Percentage of GFP Positive Cells at 72 hours (20 μM): alanine scan, 20 μM of PPMO
Description: HELA-654 cells were imaged at 72 hours with an incucyte and the number of GFP positive cells versus total cell counts were calculated with the incucyte image analysis software. Statistical analysis was conducted using a one-way analysis of variance (ANOVA) test with Dunnett's multiple comparison test. Bars represent mean±standard deviation (SD), with P<0.05 was considered to indicate statistical significance, (**** p<0.0001, *** […], ** p<0.01, * p<0.05).
HELA-654 cells were imaged at 72 hours with an incucyte and the number of GFP positive cells versus total cell counts were calculated with the incucyte image analysis software.

[3] = test system: HeLa 654 cells; test: Lactate dehydrogenase (LDH) release assay in HeLa 654 cells; format: cell-based; settings: 25 μM
Description: The media from the cells was analyzed for LDH release with an LDH assay and the percentage of LDH release was calculated relative to fully lysed cells.
Cytotoxicity assays were performed in HeLa 654 cells or TH-1 renal cells. TH-1 cells were maintained in DMEM supplemented with 10% (v/v) fetal bovine serum (FBS) and 1% (v/v) penicillin-streptomycin at 37° C. and 5% CO2H-1. Cells were plated at 5,000 cells/well in a 96-well plate 18-hours prior to treatment and treated with PMO-peptide compounds as described above. HeLa cell LDH assays were performed concurrently on the cells treated for Flow cytometry, so all plating and treatment protocols match those described above.
17 hours after cell treatment, the Promega CytoTox lysis solution was added to 3 wells of each plate as a fully lysed control (100% LDH-release). 18 hours after treatment, cell supernatant was transferred to a new 96-well plate for analysis of LDH release. To each well of the 96-well plate containing supernatant was added CytoTox 96 Reagent (Promega). […] Equal volume of Stop Solution was added to each well, mixed, and the absorbance of each well was measured at 490 nm. The measurement of vehicle-treated cells was subtracted from each measurement, and % LDH release was calculated as % cytotoxicity=100×Experimental LDH Release (OD490)/Maximum LDH Release (OD490).

[4] = test system: eGFP-654 mice; test: eGFP-654 mouse study: GFP fluorescence in tissue homogenates; format: in vivo; settings: 20 mg/kg intravenous, tissues collected weekly for 8 weeks
Description: The tissues from a series of organs were homogenized and GFP fluorescence was measured with a spectrophotometer and normalized to tissue quantity (FIG. 9-17). Median effective dose (ED50) was also derived from the dose-response curve. PMO-CXP1 compound exposure was calculated with an enzyme-linked oligonucleotide hybridization assay (ELOHA). Briefly, the ELOHA assay is a two-step hybridization assay where the analyte is bound to both an immobilized capture probe and biotinylated detection probe. Streptavidin-AP-conjugate is added to the mixture and AttoPhos substrate is added to the system and incubated for 10 minutes. Stop solution is added and the plate is read on the spectrophotometer. The compound concentrations were determined from a standard curve. […] Compound efficacy and exposure were calculated in the quadriceps (FIGS. 9-10), heart (FIGS. 11-12), diaphragm (FIGS. 13-14), and kidney (FIGS. 15-16). The compound was also found to have efficacy for up to 56 days in vivo (FIG. 17).
PPMOs at 3 mg/kg were intravenously delivered to eGFP-654 mice. […] The tissues were homogenized and GFP fluorescence measurements were read for a fluorescence spectrophotometer and normalized to tissue quantity to measure efficacy (FIGS. 26-29). Compound efficacy and exposure were calculated in the quadriceps (FIG. 26), heart (FIG. 27), diaphragm (FIG. 28), and kidney (FIG. 29).

[5] = chimeric peptide PMO conjugates, read-out: EC50 (at 72 h)
[6] = CXP1 analogs (unnatural amino acids replaced), read-out: EC50 (72 h)

Substance: Lys-Thr-Ser-Iph-Gly-Arg-Lys-Gln-Lys-Thr-Ser-Iph-Gly-Arg-Lys-Trp-Lys-Lys (KTS[Iph]GRKQKTS[Iph]GRKWKK; not fully specified (N-terminus, C-terminus); printed as Lys-Thr-Ser-Iph-Gly-Arg-Lys-Gln-Lys-Thr-Ser-Iph-Gly-Arg-Lys-Trp-Lys-Lys; also: PMO IVS2-654 conjugate) [CXD1A]
- PMO delivery (mean eGFP fluorescence relative to vehicle) ([1]; 1 μM, 22 h): high PMO delivery
- EC50 [2, 5]: 3.35 µM

Substance: Lys-Thr-Ser-Iph-Gly-Arg-Lys-Gln-Lys-Thr-Ser-Iph-Gly-Arg-Gly-Pip-Lys-Trp-Lys-Lys (KTS[Iph]GRKQKTS[Iph]GRG[Api]KWKK; not fully specified (C-terminus); printed as Lys-Thr-Ser-Iph-Gly-Arg-Lys-Gln-Lys-Thr-Ser-Iph-Gly-Arg-Gly-Pip-Lys-Trp-Lys-Lys; also: PMO conjugate) [SB-CXP1]
- PMO response (mean eGFP fluorescence relative to vehicle) ([1]; 22 h): highest PMO response compared to the other segment-CXP1 sequences
- EC50 [2, 5]: 2.08 µM

Substance: Iph-Gly-Arg-Gly-Pip-Lys-Gln-Lys-Thr-Ser-Iph-Gly-Arg-Gly-Pip-Lys-Trp-Lys-Lys ([Iph]GRG[Api]KQKTS[Iph]GRG[Api]KWKK; also: PMO conjugate) [SA-CXP1]
- PMO response (mean eGFP fluorescence relative to vehicle) ([1]; 22 h): highest PMO response compared to the other segment-CXP1 sequences
- Toxicity: LDH release [3]: toxicity closest to the parent CXP1-CXP1 peptide
- EC50 [2, 5]: 1.57 µM

Substance: [Dab]VARNN[Dab]TKGKWKK [PMO-CXP3]
- PMO delivery: eGFP fluorescence relative to PMO alone [1]: high levels of PMO delivery
- PMO delivery at varying concentrations (mean eGFP fluorescence relative to vehicle) ([1]; 22 h): dose-dependent delivery of PMO
- EC50 ([2]; read-out: EC50 (at 72 h)): 13.8 µM

Substance: Lys-Gln-Lys-Thr-Ser-Iph-Ala-Arg-Gly-Pip-Lys-Trp-Lys-Lys (KQKTS[Iph]ARG[Api]KWKK; also: PMO conjugate) [PMO-CXP1H]
- Percentage of GFP Positive Cells at 72 hours (20 μM) ([2]; 72 hours): 65.5%

Substance: Lys-Gln-Lys-Thr-Ser-Ala-Gly-Arg-Gly-Pip-Lys-Trp-Lys-Lys (KQKTSAGRG[Api]KWKK; also: PMO conjugate) [PMO-CXP1G]
- Percentage of GFP Positive Cells at 72 hours (20 μM) ([2]; 72 hours): 55.8%

Substance: Lys-Gln-Lys-Thr-Ser-Iph-Gly-Arg-Gly-Lys-Lys-Trp-Lys-Lys (KQKTS[Iph]GRGKKWKK; also: PMO conjugate) [PMO-CXP1Y]
- EC50 [2, 6]: 14.4 µM

Substance: Cit-Met-Phe-Gly-Pip-Dab-Dab-Lys-Ala-Pro-Lys-Trp-Lys-Lys ([Cit]MFG[Api][Dab][Dab]KAPKWKK; also: PMO conjugate) [PMO-CXP4]
- PMO delivery: eGFP fluorescence relative to PMO alone [1]: high levels of PMO delivery
- PMO delivery at varying concentrations (mean eGFP fluorescence relative to vehicle) ([1]; 22 h): dose-dependent delivery of PMO
- EC50 ([2]; read-out: EC50 (at 72 h)): 4.57 µM

Substance: Lys-Gln-Lys-Thr-Ser-Iph-Gly-Arg-Gly-Pip-Iph-Trp-Lys-Lys (KQKTS[Iph]GRG[Api][Iph]WKK; also: PMO conjugate) [PMO-CXP1U]
- Percentage of GFP Positive Cells at 72 hours (30 μM) ([2]; Iph scan, 30 μM of compound, 72 hours): 66.4%

Substance: Asn-Phe-Lys-Gln-Nap-His-Ala-Gly-Dab-Arg-Lys-Trp-Lys-Lys (NFKQ[2Nal]HAG[Dab]RKWKK; also: PMO conjugate) [PMO-CXP2]
- PMO delivery: eGFP fluorescence relative to PMO alone [1]: high levels of PMO delivery
- PMO delivery at varying concentrations (mean eGFP fluorescence relative to vehicle) ([1]; 22 h): dose-dependent delivery of PMO
- EC50 ([2]; read-out: EC50 (at 72 h)): 11.5 µM

Substance: Lys-Gln-Lys-Thr-Ser-Iph-Gly-Arg-Gly-Ala-Lys-Trp-Lys-Lys (KQKTS[Iph]GRGAKWKK; also: PMO conjugate) [PMO-CXP1K]
- Percentage of GFP Positive Cells at 72 hours (20 μM) ([2]; 72 hours): 39.3%

Substance: Lys-Gln-Lys-Ala-Ser-Iph-Gly-Arg-Gly-Pip-Lys-Trp-Lys-Lys (KQKAS[Iph]GRG[Api]KWKK; also: PMO conjugate) [PMO-CXP1E]
- Percentage of GFP Positive Cells at 72 hours (20 μM) ([2]; 72 hours): 70.5%

Substance: Lys-Gln-Lys-Thr-Ser-Iph-Gly-Arg-Gly-Pip-Lys-Trp-Lys-Lys-Gly-Lys-Gln-Lys-Thr-Ser-Iph-Gly-Arg-Gly-Pip-Lys-Trp-Lys-Lys (KQKTS[Iph]GRG[Api]KWKKGKQKTS[Iph]GRG[Api]KWKK; not fully specified (C-terminus); printed as Lys-Gln-Lys-Thr-Ser-Iph-Gly-Arg-Gly-Pip-Lys-Trp-Lys-Lys-Gly-Lys-Gln-Lys-Thr-Ser-Iph-Gly-Arg-Gly-Pip-Lys-Trp-Lys-Lys; also: PMO IVS2-654 conjugate) [PMO-CXP1-CXP1]
- EC50 [2, 5]: 1.07 µM

Substance: Lys-Gln-Lys-Thr-Ser-Iph-Gly-Arg-Gly-Pip-Lys-Trp-Lys-Lys (KQKTS[Iph]GRG[Api]KWKK-NH2; also: PMO conjugated via DBCO linker) [PMO-CXP1]
- PMO delivery: eGFP fluorescence relative to PMO alone [1]: high levels of PMO delivery
- PMO delivery at varying concentrations (mean eGFP fluorescence relative to vehicle) ([1]; 22 h): dose-dependent delivery of PMO
- EC50 ([2]; read-out: EC50 (at 72 h)): 7.08 µM
- Duration of efficacy in vivo [4]: up to 56 days

Substance: Lys-Gln-Lys-Thr-Ser-Phe-Gly-Arg-Gly-Pip-Lys-Trp-Lys-Lys (KQKTSFGRG[Api]KWKK; not fully specified (C-terminus); printed as Lys-Gln-Lys-Thr-Ser-Phe-Gly-Arg-Gly-Pip-Lys-Trp-Lys-Lys; also: PMO conjugate) [PMO-CXP1X]
- EC50 [2, 6]: 17.4 µM

Substance: Dab-Val-Ala-Arg-Asn-Asn-Dab-Thr-Lys-Gly-Lys-Trp-Lys-Lys-Gly-Lys-Gln-Lys-Thr-Ser-Iph-Gly-Arg-Gly-Pip-Lys-Trp-Lys-Lys [PMO-CXP3-CXP1]
- EC50 [2, 5]: 0.026 µM

Substance: Cit-Met-Phe-Gly-Pip-Dab-Dab-Lys-Ala-Pro-Lys-Trp-Lys-Lys-Gly-Lys-Gln-Lys-Thr-Ser-Iph-Gly-Arg-Gly-Pip-Lys-Trp-Lys-Lys ([Cit]MFG[Api][Dab][Dab]KAPKWKKGKQKTS[Iph]GRG[Api]KWKK; also: PMO conjugate) [PMO-CXP4-CXP1]
- EC50 [2, 5]: 59.2 µM
